# Reference: patent US11034666B2, “Anti-inflammatory and antitumor 2-oxothiazoles and 2-oxothiophenes compounds” (Avexxin AS, priority 2013, dated 2021)
# Experiments:
# [1] = test system: collagen-induced arthritis (CIA) mouse model; assay: Therapeutic collagen-induced arthritis (CIA) study; format: in vivo, male DBA/1 mice; details: Days 36 to 41; Compound A 30 mg/kg ip daily; Enbrel 25 mg/kg twice a week
# From the text: The therapeutic effect of Compound A on CIA model in male DBA/1 mice following ip administration, treatment starting 7 days after the last immunization was explored. CIA developed rapidly in mice immunized with CII, with maximum AI of 10.2 observed at 39 days post immunization. The AI and incidence of vehicle- and Compound A treated groups increased in a time-dependent mode from Days 29 to 41. […] Compound A and Enbrel performed equally well; there were no significant difference between these treatments groups.
# Separate prophylactic and therapeutic efficacy studies of COMPOUND A were performed. […] Body weights were measured and recorded prior to randomization and then once daily during the study. Food consumption was measured and recorded daily. […] Necropsy examinations were performed at study termination; plasma samples were collected, organ weights were recorded […]
# CIA Assessment and Treatment. CIA was assessed in mice by two blinded observers to measure paw swelling with a capacity measurement method on Day 0, Day 20, Day 22, Day 25, Day 27, Day 29, Day 32, Day 34, Day 36, Day 39 and Day 41 after the first injection. […] However, the values measured were not included in the mean value calculations of the main groups. […]
# [2] = test system: collagen-induced arthritis (CIA) mouse model; assay: Prophylactic collagen-induced arthritis (CIA) study; format: in vivo, male DBA/1 mice
# Method: The prophylactic effect of Compound A on CIA model in male DBA/1 mice^57 following intraperitoneal (ip) administration, treatment starting 1 hour prior to the last immunization was studied. A study comparing naïve mice (healthy, non-CIA, non-treated), vehicle-treated mice (CIA with DMSO, ip) and CIA mice treated daily with Compound A (7.5 mg/kg, ip) or MTX (0.3 mg/kg, ip) was performed. CIA developed rapidly in mice immunized with CII. In the prophylactic study, a 100% incidence of CIA was observed by day 29 in CII-immunized mice, with maximum AI of 8.55 observed at 41 days post immunization. The AI and incidence of all groups increased in a time-dependent mode from day 25 to day 41.
# Separate prophylactic and therapeutic efficacy studies of COMPOUND A were performed. Methotrexate (MTX) (Jiangsu Hengrui Medicine Co, #11041411), Enbrel (Boehringer Ingelheim Pharma KG, # F39487), and vehicle (DMSO 100%, Sigma Aldrich # D2650) were administered to all groups via intraperitoneal injection once daily at a dose volume of 2 mL/kg. Observations for morbidity, mortality, injury, and the availability of food and water were conducted twice daily for all animals. Clinical observations were conducted daily during the study. Body weights were measured and recorded prior to randomization and then once daily during the study. Food consumption was measured and recorded daily. Biopsies for mid-term histology analysis were obtained on Day 13 in the prophylactic study. Necropsy examinations were performed at study termination; plasma samples were collected, organ weights were recorded
# For the prophylactic and the therapeutic studies, CIA was induced in male DBA/1 mice (except naïve mice) by immunization with 0.1 mL emulsion containing an equal volume of bovine type II collagen solution (2 mg/mL) and Freuds Complete Adjuvant at the tail base. The first injection was given on Day 0 and the second injection as booster was given on Day 21 (41-43). COMPOUND A, vehicle (DMSO) and MTX (0.3 mg/kg) were administered daily, Enbrel (25 mg/kg) was administrated twice a week. For the prophylactic study, treatment started one hour before the second collagen injection and continued for 21 days except for the histology groups that were sacrificed at Day 13 ([…]). For the therapeutic study, treatment started at Day 28 and continued for 14 days.
# CIA Assessment and Treatment. CIA was assessed in mice by two blinded observers to measure paw swelling with a capacity measurement method on Day 0, Day 20, Day 22, Day 25, Day 27, Day 29, Day 32, Day 34, Day 36, Day 39 and Day 41 after the first injection. The occurrence of arthritis was observed by scoring all paws for severity of erythema and swelling, using a clinical score ranging from 0 (no swelling) to 4 (severe swelling and erythema). The physical condition of the animals was observed daily. Scores and overall evaluation of the histology group arms were performed in the same way as the main groups. However, the values measured were not included in the mean value calculations of the main groups. The YLS-7B Foot Volume Measuring Instrument (Huaibei China Bio Equipment) was used to measure the foot volume of mice. The occurrence of arthritis was observed by scoring all paws for severity of erythema and swelling, using a clinical score ranging from 0 (no swelling) to 4 (severe swelling and erythema), i.e. yielding maximum arthritic index (AI) score 16 (46).
# Measurement of the histopathology and clinical observations. At the end of the studies, one hind foot of each mouse was collected for histopathology. The foot including the ankle was fixed in 10% neutral formalin. The ankle joints were decalcified, dehydrated, embedded in paraffin, sectioned and stained with routine hematoxylin-eosin. The sections were studied using light microscopy (10×10 and 20×10 magnifications). Arthritis damage (histological damage score) was evaluated and scored by an investigator blinded for the treatment regimen. […]
# [3] = hind paw, Compound A 7.5 mg/kg, MTX 0.3 mg/kg
smiles,measurement,setting,value
"CCCCCCCCc1ccc(OCC(=O)c2nc(C(=O)OC)cs2)cc1 [Compound A, Methyl 2-(2-(4-octylphenoxy)acetyl)thiazole-4-carboxylate]",arthritic index (AI) in comparison to the CIA control group (in words),[1],significantly decreased
same,arthritic index (AI) in comparison to the CIA control group (in words),"[2]; Days 32 to 41, Compound A 7.5 mg/kg ip daily, MTX 0.3 mg/kg ip daily",significantly reduced
same,"articular cavity and peripheral tissue inflammatory cell infiltration, histopathology vs vehicle (in words)",[2]; [3],reduced
same,"capillary and synovial hyperplasia, histopathology vs vehicle (in words)",[2]; [3],reduced
same,"cartilage damage, histopathology vs vehicle (in words)",[2]; [3],no significant effect
